Patent US20190083420A1, “METHODS OF USING (2R, 6R)-HYDROXYN[…] (2S, 6S)-HYDROXYN[…] THE TREATMENT OF DEPRESSION, ANXIETY, ANHEDONIA, FATIGUE, SUICIDAL IDEATION, AND POST TRAUMATIC STRESS DISORDERS” (The Uinited States of America, as represented by the …, priority 2016, published 2019)
“Also recorded” adds a separate entry of the source.

Tests used:
mice = assay: Pre-pulse inhibition of acoustic startle; type: in vivo
Excerpt: Mice were individually tested in acoustic startle boxes (SR-LAB, San Diego Instruments). Following drug administration, mice were placed in the startle chamber for a 30-min habituation period. The experiment started with a further 5-min adaptation period during which the mice were exposed to a constant background noise (67 dB), followed by five initial startle stimuli (120 dB, 40 msec duration each). Subsequently, animals were exposed to five different trial types: pulse alone trials (120 dB, 40 msec duration), three pre-pulse trials of 76, 81 and 86 dB of white noise bursts (20 msec duration) preceding a 120 dB pulse by 100 msec, and background (67 dB) no-stimuli trials. Each of these trials was randomly presented five times. Ketamine's dose selection (30 mg/kg) was based on a dose-response study we performed in a previous study. The percentage pre-pulse inhibition (% PPI) was calculated using the following formula: [(magnitude on pulse alone trial—magnitude on pre-pulse+pulse trial)/magnitude on pulse alone trial]×100.

[1] = Tissue distribution of ketamine and metabolites (plasma and brain levels); details: brain
Protocol: Mice were euthanized by a 30-sec exposure to 3% isoflurane and decapitated at 10, 30, 60, 240 or 480 minutes following drug administration. Trunk blood was collected in EDTA-containing tubes and centrifuged at 8000 rpm for 6 min (4° C.). Plasma was collected and stored at −80° C. until analysis. Whole brains were simultaneously collected, rinsed with phosphate-buffered saline, immediately frozen in dry ice and stored at −80° C. until analysis.
The concentrations of ketamine and its metabolites in plasma and brain tissue were determined by achiral liquid chromatography-tandem mass spectrometry. For plasma samples, the calibration standards for (R,S)-ketamine, (R,S)-norketamine, (2R,6R;2S,6S)-HNK and (R,S)-DHNK ranged from 10,000 ng/ml to 19 ng/ml. The quantification of (R,S)-ketamine, (R,S)-norketamine, (R,S)-DHNK, and the HNK stereoisomers was accomplished by calculating area ratios using D4-ketamine (10 μl of 10 μg/ml solution) as the internal standard. Whole brains were suspended in 990 μl of water:methanol (3:2, v/v), D4-ketamine (10 μl of 10 μg/ml) added and the resulting mixture homogenized on ice with a polytron homogenizer and centrifuged at 21,000×g for 30 min. The supernatant was collected and processed using 1 ml Oasis HLB solid phase extraction cartridges (Waters Corp., Waltham, Mass.). The cartridges were preconditioned with 1 ml of methanol, followed by 1 ml of water and then 1 ml ammonium acetate [10 mM, pH 9.5]. The supernatants were added to the cartridges, followed by 1 ml of water and the compounds were eluted with 1 ml of methanol. The eluent was transferred to an autosampler vial for analysis. QC standards for the analysis of (R,S)-ketamine, (R,S)-norketamine, (R,S)-DHNK and (2R,6R;2S,6S)-HNK ranged from 10,000 ng/ml to 19 ng/ml, and quantification was accomplished using D4-(R,S)-ketamine as the internal standard. QC standards were prepared daily by adding 10 μl of the appropriate standard solution and 10 μl of internal standard solution (100 ng/ml) to methanol.

eEF2 = assay: Western blot of synaptoneurosomes, eEF2 phosphorylation; type: in vivo, mice; details: for phosphorylation of eEF2: hippocampus, 1 hour and 24 hours post-injection, 10 mg/kg; for eEF2 / phosphorylated eEF2: prefrontal cortex
Protocol: To purify synaptoneurosomes, mouse prefrontal cortex or hippocampus were dissected and homogenized in Syn-PER Reagent (ThermoFisher Scientific, Waltham, Mass., USA; Cat #87793) with 1× protease and phosphatase inhibitor cocktail (ThermoFisher Scientific, Waltham, Mass., USA; Cat #78440). The homogenate was centrifuged for 10 min at 1,200×g at 4° C. The supernatant was centrifuged at 15,000×g for 20 min. After centrifugation, the supernatant the pellet (synaptosomal fraction) was re-suspended and sonicated in N-PER Neuronal Protein Extraction Reagent (ThermoFisher Scientific, Waltham, Mass., USA; Cat #87792). For total homogenous tissue lysates, mouse prefrontal cortex or hippocampus were homogenized and sonicated in N-PER Neuronal Protein Extraction Reagent with 1× protease & phosphatase inhibitor cocktail) Protein concentration was determined via the BCA protein assay kit (ThermoFisher Scientific, Waltham, Mass., USA; Cat #23227).
For western blotting, equal amount of proteins (10-40 μg as optimal for each antibody) for each sample were loaded into NuPage 4-12% Bis-Tris gel for electrophoresis. Nitrocellulose membranes with transferred proteins were blocked with 5% milk in TBST (TBS+0.1% Tween-20) for 1 hour and kept with primary antibodies overnight at 4° C. The following primary antibodies were used: phospho-eEF2 (Cell Signaling Technology, Danvers, Mass., USA; Cat #2331), total eEF2 (Cell Signaling Technology, Danvers, Mass., USA; Cat #2332), phospho-mTOR (Cell Signaling Technology, Danvers, Mass., USA; Cat #2971), total mTOR (Cell Signaling Technology, Danvers, Mass., USA; Cat #2983), GluR1 (Cell Signaling Technology, Danvers, Mass., USA; […]), GluR2 (Cell Signaling Technology, Danvers, Mass., USA; Cat #13607), BDNF (Santa Cruz Biotechnology, Dallas, Tex., USA; Cat # sc-546), and GAPDH (Abcam, Cambridge, Mass., USA; Cat # ab8245). The next day, blots were washed three times in PBST and incubated with horseradish peroxidase conjugated anti-mouse or anti-rabbit secondary antibody (1:5000 to 1:10000) for 1 hour. After final three washes with TBST, bands were detected using enhanced chemiluminescence (ECL) with the Syngene Imaging System (G:Box ChemiXX9). After imaging, the blots then were incubated in the stripping buffer (ThermoFisher Scientific, Waltham, Mass., USA; Cat #46430) for 10-15 min at room temperature followed by three time washes with TBST. The stripped blots were washed in blocking solution for 1 hour and incubated with the primary antibody directed against total levels of the respective protein or GAPDH for loading control. Densitometric analysis of phospho- and total immunoreactive bands for each protein was conducted using Syngene's GenTools software Immunoreactivity was normalized to the saline treated control group for each protein.

Row | SMILES | pre-pulse inhibition (sensorimotor gating) (mice; (2R,6R)-HNK up to 375 mg/kg) | brain hydroxynorketamine levels after administration of (2S,6S)-HNK versus (2R,6R)-HNK [1] | phosphorylation of eEF2 (eEF2; listed as (2R,6R)-hydroxynorketamine) | eEF2 / phosphorylated eEF2 (eEF2) | startle amplitude in the pre-pulse inhibition task (mice; mouse, in vivo) | brain levels following ketamine administration, female mice compared to males [1] | phosphorylation of eEF2 (eEF2) | phosphorylation of eEF2 (eEF2; listed as (R,S)-ketamine) | eEF2 / phosphorylated eEF2 (eEF2; listed as (R,S)-KET)
1 | N[C@@]1(c2ccccc2Cl)CCC[C@@H](O)C1=O [(2R,6R)-HNK, (2R,6R)-2-amino-2-(2-chlorophenyl)-6-hydroxycyclohexanone] | did not induce 4e, pre-pulse inhibition deficits; also recorded: did not affect sensorimotor gating; also recorded: did not affect pre-pulse inhibition | do not result from higher brain levels | decrease phosphorylation of eEF2 | did not alter | – | – | – | – | –
2 | CNC1(c2ccccc2Cl)CCCCC1=O (racemic) [ketamine, (R,S)-ketamine, reference compound] | – | – | – | – | not affected | equivalent levels | induced a decrease in eEF2 phosphorylation | decrease phosphorylation of eEF2 | did not alter
